Test system: 873145-292-R-J1-PDC complex spheroid viability
Experiment: Anticancer human tumor 873145-292-R-J1-PDC patient-derived renal clear cell carcinoma cell line growth inhibition [POLQ]
Conditions: for IC50: curve of first compound; for viability, T/C: stronger effect = lower value
Outline: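 PDC + HUVEC + MSC complex spheroids; POLQ inhibitors ± partner drugs; top conc. at/near clinical Cmax, else 10 microM (SN-38 1 microM), half-log dilutions; 37 degrees C, 5% CO2.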

[1] = second compound 0.0316 µM, first compound 0.0316 µM
[2] = second compound 0.0316 µM, first compound 0.1 µM
[3] = second compound 0.0316 µM, first compound 0.316 µM
[4] = second compound 0.0316 µM, first compound 1 µM
[5] = second compound 0.1 µM, first compound 0.0316 µM
[6] = second compound 0.1 µM, first compound 0.1 µM
[7] = second compound 0.1 µM, first compound 0.316 µM
[8] = second compound 0.1 µM, first compound 1 µM
[9] = second compound 0.316 µM, first compound 0.0316 µM
[10] = second compound 0.316 µM, first compound 0.1 µM
[11] = second compound 0.316 µM, first compound 0.316 µM
[12] = second compound 0.316 µM, first compound 1 µM
[13] = second compound 1 µM, first compound 0.0316 µM
[14] = second compound 1 µM, first compound 0.1 µM
[15] = second compound 1 µM, first compound 0.316 µM
[16] = second compound 1 µM, first compound 1 µM
[17] = second compound 3.16 µM, first compound 0.0316 µM
[18] = second compound 3.16 µM, first compound 0.1 µM
[19] = second compound 3.16 µM, first compound 0.316 µM
[20] = second compound 3.16 µM, first compound 1 µM
[21] = second compound 10 µM, first compound 0.0316 µM
[22] = second compound 10 µM, first compound 0.1 µM
[23] = second compound 10 µM, first compound 0.316 µM
[24] = second compound 10 µM, first compound 1 µM
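Also: spheroids exposed to compounds for 7 days before viability readout.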
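For viability, T/C in this document: luminescence signal used as surrogate for viable cell content; 100% = DMSO vehicle control viability.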

With `CNCc1ccc(-c2[nH]c3cc(F)cc4c3c2CCNC4=O)cc1` + Cc1cccc(N(C)C(=O)C2C(O)CCN2c2nc(C)cc(C(F)(F)F)c2C#N)c1 the IC50 (second compound 0.0316 µM) was > 10 µM, the IC50 (second compound 0.1 µM) was > 10 µM and the IC50 (second compound 0.316 µM) was > 10 µM. The IC50 (second compound 1 µM) was > 10 µM, the IC50 (second compound 3.16 µM) was > 10 µM and the IC50 (second compound 10 µM) was > 10 µM. The viability, T/C [1] was 93.1%, the viability, T/C [2] was 111% and the viability, T/C [3] was 96.6%. The viability, T/C [4] was 96.4%, the viability, T/C (second compound 0.0316 µM, first compound 3.16 µM) was 110% and the viability, T/C (second compound 0.0316 µM, first compound 10 µM) was 96.2%. For the same compound, the viability, T/C [5] was 110%, the viability, T/C [6] was 94.1% and the viability, T/C [7] was 89.5%. The viability, T/C [8] was 91.8%, the viability, T/C (second compound 0.1 µM, first compound 3.16 µM) was 108% and the viability, T/C (second compound 0.1 µM, first compound 10 µM) was 99.9%. For the same compound, the viability, T/C [9] was 111%, the viability, T/C [10] was 101% and the viability, T/C [11] was 99%. The viability, T/C [12] was 91.3%, the viability, T/C (second compound 0.316 µM, first compound 3.16 µM) was 97.5% and the viability, T/C (second compound 0.316 µM, first compound 10 µM) was 111%. The viability, T/C [13] was 99.5%, the viability, T/C [14] was 102% and the viability, T/C [15] was 99.1%. For the same compound, the viability, T/C [16] was 109%, the viability, T/C (second compound 1 µM, first compound 3.16 µM) was 101% and the viability, T/C (second compound 1 µM, first compound 10 µM) was 95.9%. It also gave a viability, T/C [17] of 102%, a viability, T/C [18] of 91% and a viability, T/C [19] of 97.6%. For the same compound, the viability, T/C [20] was 87.9%, the viability, T/C (second compound 3.16 µM, first compound 3.16 µM) was 101% and the viability, T/C (second compound 3.16 µM, first compound 10 µM) was 107%. The viability, T/C [21] was 88.6%, the viability, T/C [22] was 90.4% and the viability, T/C [23] was 106%. It also gave a viability, T/C [24] of 88.8%, a viability, T/C (second compound 10 µM, first compound 3.16 µM) of 106% and a viability, T/C (second compound 10 µM, first compound 10 µM) of 94.5%.
`COc1cccc(OCCCN)c1-c1cc(Nc2cnc(C#N)cn2)n[nH]1` + Cc1cccc(N(C)C(=O)C2C(O)CCN2c2nc(C)cc(C(F)(F)F)c2C#N)c1 was tested, and the IC50 (second compound 0.0316 µM) was > 1 µM, the IC50 (second compound 0.1 µM) was > 1 µM and the IC50 (second compound 0.316 µM) was > 1 µM. For the same compound, the IC50 (second compound 1 µM) was > 1 µM, the IC50 (second compound 3.16 µM) was > 1 µM and the IC50 (second compound 10 µM) was > 1 µM. It also gave a viability, T/C (second compound 0.0316 µM, first compound 0.00316 µM) of 102%, a viability, T/C (second compound 0.0316 µM, first compound 0.01 µM) of 111% and a viability, T/C [1] of 77.8%. The viability, T/C [2] was 69.7%, the viability, T/C [3] was 74.8% and the viability, T/C [4] was 78.3%. The viability, T/C (second compound 0.1 µM, first compound 0.00316 µM) was 104%, the viability, T/C (second compound 0.1 µM, first compound 0.01 µM) was 103% and the viability, T/C [5] was 65.9%. It also gave a viability, T/C [6] of 73.7%, a viability, T/C [7] of 66.5% and a viability, T/C [8] of 82.1%. The viability, T/C (second compound 0.316 µM, first compound 0.00316 µM) was 95.5%, the viability, T/C (second compound 0.316 µM, first compound 0.01 µM) was 91.5% and the viability, T/C [9] was 72.7%. It also gave a viability, T/C [10] of 73.9%, a viability, T/C [11] of 75.6% and a viability, T/C [12] of 83%. It also gave a viability, T/C (second compound 1 µM, first compound 0.00316 µM) of 98.2%, a viability, T/C (second compound 1 µM, first compound 0.01 µM) of 90.3% and a viability, T/C [13] of 77.5%. For the same compound, the viability, T/C [14] was 70.8%, the viability, T/C [15] was 81.8% and the viability, T/C [16] was 79.1%. The viability, T/C (second compound 3.16 µM, first compound 0.00316 µM) was 98.9%, the viability, T/C (second compound 3.16 µM, first compound 0.01 µM) was 91.7% and the viability, T/C [17] was 84.7%. It also gave a viability, T/C [18] of 82.3%, a viability, T/C [19] of 67.7% and a viability, T/C [20] of 77.3%. For the same compound, the viability, T/C (second compound 10 µM, first compound 0.00316 µM) was 88.1%, the viability, T/C (second compound 10 µM, first compound 0.01 µM) was 93.6% and the viability, T/C [21] was 91.2%. The viability, T/C [22] was 74.7%, the viability, T/C [23] was 88.6% and the viability, T/C [24] was 91.8%.
